# Measurements reported in ChEMBL document CHEMBL1255353, “Antistreptococcal activity of AR-709 compared to that of other agents” (2008).
# Legend:
# Type in all cases: functional
# Streptococcus pneumoniae [1] = assay: Antimicrobial activity against penicillin-intermediate Streptococcus pneumoniae by agar dilution method
# Streptococcus pneumoniae [2] = assay: Antimicrobial activity against macrolide-resistant Streptococcus pneumoniae by agar dilution method
# Streptococcus pneumoniae [3] = assay: Antimicrobial activity against quinolone-resistant Streptococcus pneumoniae by agar dilution method
# [4] = tested on: Streptococcus sp. 'group A'; assay: Antimicrobial activity against macrolide-susceptible Streptococcus sp. 'group A' by agar dilution method
# Streptococcus pneumoniae [5] = assay: Antimicrobial activity against quinolone-susceptible Streptococcus pneumoniae by agar dilution method
# Streptococcus pneumoniae [6] = assay: Antimicrobial activity against trimethoprim-sulfamethoxazole-resistant Streptococcus pneumoniae by agar dilution method
# [7] = tested on: Streptococcus sp. 'group A'; assay: Antimicrobial activity against macrolide-resistant Streptococcus sp. 'group A' by agar dilution method
# Streptococcus pneumoniae [8] = assay: Antimicrobial activity against macrolide-resistant Streptococcus pneumoniae by agar dilution method in presence of […] clavulanic acid
# Streptococcus pneumoniae [9] = assay: Antimicrobial activity against macrolide-susceptible Streptococcus pneumoniae by agar dilution method in presence of […] clavulanic acid
# Streptococcus pneumoniae [10] = assay: Antimicrobial activity against quinolone-susceptible Streptococcus pneumoniae by agar dilution method in presence of […] clavulanic acid
# Streptococcus pneumoniae [11] = assay: Antimicrobial activity against trimethoprim-sulfamethoxazole-resistant Streptococcus pneumoniae by agar dilution method in presence of […] clavulanic acid
# Streptococcus pneumoniae [12] = assay: Antimicrobial activity against penicillin-susceptible Streptococcus pneumoniae by agar dilution method in presence of […] clavulanic acid
# Streptococcus pneumoniae [13] = assay: Antimicrobial activity against trimethoprim-sulfamethoxazole-susceptible Streptococcus pneumoniae by agar dilution method in presence of […] clavulanic acid
# Streptococcus pneumoniae [14] = assay: Antimicrobial activity against quinolone-resistant Streptococcus pneumoniae by agar dilution method in presence of […] clavulanic acid
# [15] = tested on: Streptococcus sp. 'group A'; assay: Antimicrobial activity against macrolide-susceptible Streptococcus sp. 'group A' by agar dilution method in presence of […] clavulanic acid
# Streptococcus pneumoniae [16] = assay: Antimicrobial activity against penicillin-resistant Streptococcus pneumoniae by agar dilution method in presence of […] clavulanic acid
# Streptococcus pneumoniae [17] = assay: Antimicrobial activity against penicillin-intermediate Streptococcus pneumoniae by agar dilution method in presence of […] clavulanic acid
# Streptococcus pneumoniae [18] = assay: Antimicrobial activity against macrolide-susceptible Streptococcus pneumoniae by agar dilution method
# Streptococcus pneumoniae [19] = assay: Antimicrobial activity against trimethoprim-sulfamethoxazole-susceptible Streptococcus pneumoniae by agar dilution method
# Streptococcus pneumoniae [20] = assay: Antimicrobial activity against penicillin-resistant Streptococcus pneumoniae by agar dilution method
# Streptococcus pneumoniae [21] = assay: Antimicrobial activity against penicillin-susceptible Streptococcus pneumoniae by agar dilution method
# Streptococcus pneumoniae [22] = assay: Antimicrobial activity against Streptococcus pneumoniae assessed as time required to show antibiotic effect
smiles,measurement,setting,value
O=C(O)c1cn(C2CC2)c2cc(N3CCNCC3)c(F)cc2c1=O [CIPROFLOXACIN],MIC50,Streptococcus pneumoniae [1],1 µg/mL
same,MIC90,Streptococcus pneumoniae [1],4 µg/mL
same,MIC50,Streptococcus pneumoniae [2],1 µg/mL
same,MIC90,Streptococcus pneumoniae [2],4 µg/mL
same,MIC50,Streptococcus pneumoniae [3],32 µg/mL
same,MIC90,Streptococcus pneumoniae [3],> 32 µg/mL
same,MIC,[4],0.5 µg/mL
same,MIC50,[4],0.5 µg/mL
same,MIC90,[4],1 µg/mL
same,MIC50,Streptococcus pneumoniae [5],1 µg/mL
same,MIC90,Streptococcus pneumoniae [5],2 µg/mL
same,MIC50,Streptococcus pneumoniae [6],1 µg/mL
same,MIC90,Streptococcus pneumoniae [6],4 µg/mL
same,MIC50,[7],0.5 µg/mL
same,MIC90,[7],2 µg/mL
CC1(C)S[C@@H]2[C@H](NC(=O)[C@H](N)c3ccc(O)cc3)C(=O)N2[C@H]1C(=O)O [AMOXICILLIN],MIC50,Streptococcus pneumoniae [8],0.12 µg/mL
same,MIC90,Streptococcus pneumoniae [8],4 µg/mL
same,MIC50,Streptococcus pneumoniae [9],0.06 µg/mL
same,MIC90,Streptococcus pneumoniae [9],1 µg/mL
same,MIC50,Streptococcus pneumoniae [10],0.12 µg/mL
same,MIC90,Streptococcus pneumoniae [10],2 µg/mL
same,MIC50,Streptococcus pneumoniae [11],0.5 µg/mL
same,MIC90,Streptococcus pneumoniae [11],4 µg/mL
same,MIC,Streptococcus pneumoniae [12],≤ 0.016 µg/mL
same,MIC50,Streptococcus pneumoniae [12],≤ 0.016 µg/mL
same,MIC90,Streptococcus pneumoniae [12],0.03 µg/mL
same,MIC50,Streptococcus pneumoniae [13],0.03 µg/mL
same,MIC90,Streptococcus pneumoniae [13],0.12 µg/mL
same,MIC50,Streptococcus pneumoniae [14],0.5 µg/mL
same,MIC90,Streptococcus pneumoniae [14],2 µg/mL
same,MIC,[15],≤ 0.016 µg/mL
same,MIC50,[15],≤ 0.016 µg/mL
same,MIC90,[15],≤ 0.016 µg/mL
same,MIC50,Streptococcus pneumoniae [16],2 µg/mL
same,MIC90,Streptococcus pneumoniae [16],4 µg/mL
same,MIC50,Streptococcus pneumoniae [17],0.12 µg/mL
same,MIC90,Streptococcus pneumoniae [17],1 µg/mL
CC1(C)S[C@@H]2[C@H](NC(=O)Cc3ccccc3)C(=O)N2[C@H]1C(=O)O [PENICILLIN G],MIC50,Streptococcus pneumoniae [1],0.25 µg/mL
same,MIC90,Streptococcus pneumoniae [1],1 µg/mL
same,MIC50,Streptococcus pneumoniae [18],0.12 µg/mL
same,MIC90,Streptococcus pneumoniae [18],2 µg/mL
same,MIC50,Streptococcus pneumoniae [2],0.25 µg/mL
same,MIC90,Streptococcus pneumoniae [2],4 µg/mL
same,MIC50,Streptococcus pneumoniae [19],0.03 µg/mL
same,MIC90,Streptococcus pneumoniae [19],0.25 µg/mL
same,MIC50,Streptococcus pneumoniae [3],0.5 µg/mL
same,MIC90,Streptococcus pneumoniae [3],2 µg/mL
same,MIC,Streptococcus pneumoniae [20],2 µg/mL
same,MIC50,Streptococcus pneumoniae [20],2 µg/mL
same,MIC90,Streptococcus pneumoniae [20],4 µg/mL
same,MIC,Streptococcus pneumoniae [5],0.12 µg/mL
same,MIC50,Streptococcus pneumoniae [5],0.12 µg/mL
same,MIC90,Streptococcus pneumoniae [5],2 µg/mL
same,MIC50,Streptococcus pneumoniae [6],1 µg/mL
same,MIC90,Streptococcus pneumoniae [6],4 µg/mL
same,MIC50,Streptococcus pneumoniae [21],0.016 µg/mL
same,MIC90,Streptococcus pneumoniae [21],0.06 µg/mL
C[C@H]1COc2c(N3CCN(C)CC3)c(F)cc3c(=O)c(C(=O)O)cn1c23.C[C@H]1COc2c(N3CCN(C)CC3)c(F)cc3c(=O)c(C(=O)O)cn1c23.O [LEVOFLOXACIN],MIC50,Streptococcus pneumoniae [1],1 µg/mL
same,MIC90,Streptococcus pneumoniae [1],2 µg/mL
same,MIC50,Streptococcus pneumoniae [18],1 µg/mL
same,MIC90,Streptococcus pneumoniae [18],8 µg/mL
same,MIC50,Streptococcus pneumoniae [2],1 µg/mL
same,MIC90,Streptococcus pneumoniae [2],2 µg/mL
same,MIC50,Streptococcus pneumoniae [19],1 µg/mL
same,MIC90,Streptococcus pneumoniae [19],2 µg/mL
same,MIC50,Streptococcus pneumoniae [3],16 µg/mL
same,MIC90,Streptococcus pneumoniae [3],16 µg/mL
same,MIC50,Streptococcus pneumoniae [20],1 µg/mL
same,MIC90,Streptococcus pneumoniae [20],4 µg/mL
same,MIC,[4],0.5 µg/mL
same,MIC50,[4],0.5 µg/mL
same,MIC90,[4],2 µg/mL
same,MIC50,Streptococcus pneumoniae [5],1 µg/mL
same,MIC90,Streptococcus pneumoniae [5],1 µg/mL
same,MIC50,Streptococcus pneumoniae [6],1 µg/mL
same,MIC90,Streptococcus pneumoniae [6],2 µg/mL
same,MIC50,Streptococcus pneumoniae [21],1 µg/mL
same,MIC90,Streptococcus pneumoniae [21],8 µg/mL
same,MIC50,[7],0.5 µg/mL
same,MIC90,[7],1 µg/mL
CC[C@H]1OC(=O)[C@H](C)[C@@H](O[C@H]2C[C@@](C)(OC)[C@@H](O)[C@H](C)O2)[C@H](C)[C@@H](O[C@@H]2O[C@H](C)C[C@H](N(C)C)[C@H]2O)[C@](C)(O)C[C@@H](C)CN(C)[C@H](C)[C@@H](O)[C@]1(C)O [AZITHROMYCIN],MIC50,Streptococcus pneumoniae [1],0.12 µg/mL
same,MIC90,Streptococcus pneumoniae [1],> 64 µg/mL
same,MIC50,Streptococcus pneumoniae [18],0.12 µg/mL
same,MIC90,Streptococcus pneumoniae [18],0.12 µg/mL
same,MIC50,Streptococcus pneumoniae [2],> 64 µg/mL
same,MIC50,Streptococcus pneumoniae [19],0.12 µg/mL
same,MIC90,Streptococcus pneumoniae [19],> 64 µg/mL
same,MIC50,Streptococcus pneumoniae [3],0.12 µg/mL
same,MIC50,Streptococcus pneumoniae [20],8 µg/mL
same,MIC50,[4],0.12 µg/mL
same,MIC90,[4],0.25 µg/mL
same,MIC50,Streptococcus pneumoniae [5],4 µg/mL
same,MIC90,Streptococcus pneumoniae [5],> 64 µg/mL
same,MIC50,Streptococcus pneumoniae [6],8 µg/mL
same,MIC50,Streptococcus pneumoniae [21],0.12 µg/mL
same,MIC90,Streptococcus pneumoniae [21],> 64 µg/mL
same,MIC50,[7],> 64 µg/mL
same,MIC90,[7],> 64 µg/mL
CO/N=C(\C(=O)N[C@@H]1C(=O)N2C(C(=O)O)=C(COC(N)=O)CS[C@H]12)c1ccco1 [CEFUROXIME],MIC50,Streptococcus pneumoniae [1],0.25 µg/mL
same,MIC90,Streptococcus pneumoniae [1],4 µg/mL
same,MIC50,Streptococcus pneumoniae [18],0.25 µg/mL
same,MIC90,Streptococcus pneumoniae [18],4 µg/mL
same,MIC50,Streptococcus pneumoniae [2],0.5 µg/mL
same,MIC90,Streptococcus pneumoniae [2],8 µg/mL
same,MIC50,Streptococcus pneumoniae [19],0.03 µg/mL
same,MIC90,Streptococcus pneumoniae [19],0.5 µg/mL
same,MIC50,Streptococcus pneumoniae [3],2 µg/mL
same,MIC90,Streptococcus pneumoniae [3],8 µg/mL
same,MIC50,Streptococcus pneumoniae [20],4 µg/mL
same,MIC90,Streptococcus pneumoniae [20],16 µg/mL
same,MIC,[4],0.016 µg/mL
same,MIC50,[4],0.016 µg/mL
same,MIC90,[4],0.016 µg/mL
same,MIC50,Streptococcus pneumoniae [5],0.25 µg/mL
same,MIC90,Streptococcus pneumoniae [5],4 µg/mL
same,MIC50,Streptococcus pneumoniae [6],2 µg/mL
same,MIC90,Streptococcus pneumoniae [6],8 µg/mL
same,MIC50,Streptococcus pneumoniae [21],0.03 µg/mL
same,MIC90,Streptococcus pneumoniae [21],0.12 µg/mL
same,MIC,[7],0.016 µg/mL
same,MIC50,[7],0.016 µg/mL
same,MIC90,[7],0.03 µg/mL
COc1cc(Cc2cnc(N)nc2N)c2cc(Cc3c(C(=O)N(C)C)[nH]c4ccc(Cl)cc34)oc2c1OC,MIC50,Streptococcus pneumoniae [1],0.25 µg/mL
same,MIC90,Streptococcus pneumoniae [1],0.5 µg/mL
same,MIC50,Streptococcus pneumoniae [18],0.12 µg/mL
same,MIC90,Streptococcus pneumoniae [18],0.5 µg/mL
same,MIC50,Streptococcus pneumoniae [2],0.25 µg/mL
same,MIC90,Streptococcus pneumoniae [2],0.5 µg/mL
same,MIC50,Streptococcus pneumoniae [19],0.06 µg/mL
same,MIC90,Streptococcus pneumoniae [19],0.12 µg/mL
same,MIC50,Streptococcus pneumoniae [3],0.25 µg/mL
same,MIC90,Streptococcus pneumoniae [3],1 µg/mL
same,Time,Streptococcus pneumoniae [22],>=1.1 hr
same,MIC50,Streptococcus pneumoniae [20],0.25 µg/mL
same,MIC90,Streptococcus pneumoniae [20],1 µg/mL
same,MIC50,[4],0.06 µg/mL
same,MIC90,[4],0.06 µg/mL
same,MIC50,Streptococcus pneumoniae [5],0.12 µg/mL
same,MIC90,Streptococcus pneumoniae [5],0.5 µg/mL
same,MIC50,Streptococcus pneumoniae [6],0.25 µg/mL
same,MIC90,Streptococcus pneumoniae [6],0.5 µg/mL
same,MIC50,Streptococcus pneumoniae [21],0.06 µg/mL
same,MIC90,Streptococcus pneumoniae [21],0.25 µg/mL
same,MIC50,[7],0.016 µg/mL
same,MIC90,[7],0.03 µg/mL
